We go through 1 compound from patent publication EP1974751A1, “Formulations for non-steroidal anti-inflammatory drugs” (The Jordanian Pharmaceutical Manufacturing Co., priority 2007, dated 2008).

Take `OC[C@H]1O[C@@H]2O[C@H]3[C@H](O)[C@@H](O)[C@@H](O[C@H]4[C@H](O)[C@@H](O)[C@@H](O[C@H]5[C@H](O)[C@@H](O)[C@@H](O[C@H]6[C@H](O)[C@@H](O)[C@@H](O[C@H]7[C@H](O)[C@@H](O)[C@@H](O[C@H]8[C@H](O)[C@@H](O)[C@@H](O[C@H]1[C@H](O)[C@H]2O)O[C@@H]8CO)O[C@@H]7CO)O[C@@H]6CO)O[C@@H]5CO)O[C@@H]4CO)O[C@@H]3CO` [β-cyclodextrin]: under “distilled water”, the “optimal solubility of β-cyclodextrin” value is on record as 20 mM. This compound showed a β-cyclodextrin solubility (water) of 230 mM.
